Results on 20 compounds are retold here after patent publication US10577349B2 (Sanford Burnham Prebys Medical Discovery Institute, priority 2015, dated 2020).

The subject of one assay is A375. The assay is described as follows: 48 h Cytotoxicity A375. The conditions noted are these: Homo sapiens, A-375. The assay is classed as cell-based.
Assay [1] addresses EmCV Cap-dependent translation. The experiment in a line: In vitro translation assay, FF-EmCV-Ren construct, cap-dependent (FF luciferase). The class given is biochemical, rabbit reticulocyte lysates. The source says: (§1) The bicistronic dual-reporter constructs that contain the firefly luciferase (FF) sequence, followed by the (encephalomyocarditis virus) EmCV and Hepatitis C virus (HCV) IRES, respectively, and the Renilla reniformis (Ren) luciferase sequence, has been previously described (Bordeleau Me., et al. Functional characterization of IRESes by an inhibitor of the RNA helicase eIF4A. Nature chemical biology. 2006; 2:213-20). For measurement of translation from the FF-EmCV-Ren and FF-HCV-Ren constructs, rabbit reticulocyte lysates (RRL) (Life Technologies, Carlsbad, Calif., USA) and the Dual-Glo (Promega, Madison, Wis., USA) read-outs were chosen. Two μl rabbit reticulocyte lysates mixed with Translation Mix 20× (-Met) and Translation Mix 20× (-Leu) in a ratio of 1:1 were pre-incubated with test compounds in 1536-well plates for 1 h at room temperature. Then, translation was started by adding 0.1 μg RNA per well and incubated for 2 h at 30° C. After a short chill phase, 2.5 μl Dual-Glo reagent 1 was added to each well and incubated for 10 min before reading the FF luciferase activity with the ViewLux uHTS Microplate Imager (Perkin Elmer, Waltham, Mass., USA). Directly after, 2.5 μl Dual-Glo reagent 2 was dispensed to each well and incubated at room temperature for 10 min before reading the Ren luciferase activity on the ViewLux. To exclude the possibility that test compounds interfere with any of the luciferase activities, a counter assay was performed in which the compounds were added after the completion of the in vitro translation.

Assay [2] concerns the target EmCV Cap-independent translation. The assay is described as follows: In vitro translation assay, FF-EmCV-Ren construct, cap-independent (Ren luciferase). The assay is classed as biochemical, rabbit reticulocyte lysates.
Description: as §1

The target of assay [3] is HCV cap-dependent translation. The experiment in a line: In vitro translation assay, FF-HCV-Ren construct, cap-dependent (FF luciferase). The class given is biochemical, rabbit reticulocyte lysates.
Description: as §1

For assay [4], the target named is HCV cap-independent translation. The assay is described as follows: In vitro translation assay, FF-HCV-Ren construct, cap-independent (Ren luciferase). The assay is classed as biochemical, rabbit reticulocyte lysates.
Description: as §1

On to `Cc1ccc2[nH]c(/C=C/C(=O)c3c(-c4ccccc4)c4cc(Cl)cnc4[nH]c3=O)nc2c1` [Compound 114, (E)-6-chloro-3-(3-(5-methyl-1H-benzo[d]imidazol-2-yl)acryloyl)-4-phenyl-1,8-naphthyridin-2(1H)-one], for which the IC50 with A375 is 2 to 10 µM; in assay [1], 2 to 10 µM; in assay [2], 10 to 20 µM; in assay [3] it was over 20 µM; in assay [4], 10 to 20 µM.
In the case of `CCn1c(/C=C/C(=O)c2c(-c3ccccc3)c3cc(Cl)ccc3[nH]c2=O)nc2cc(Cl)c(Cl)cc21` [Compound 64, 6-Chloro-3-[3-(5,6-dichloro-1-ethyl-1H-benzoimidazol-2-yl)-acryloyl]-4-phenyl-1H-quinolin-2-one], the half-inhibitory concentration (IC50) was 2 to 10 µM in the assay with A375; 2 to 10 µM in assay [1]; 10 to 20 µM in assay [2]; 10 to 20 µM in assay [3]; over 20 µM in assay [4].
With `O=C(/C=C/c1ccccn1)c1c(-c2cncc(F)c2)c2cc(Cl)ccc2[nH]c1=O` [Compound 100, 3-((2E)-3-(2-pyridyl)prop-2-enoyl)-6-chloro-4-(5-fluoro(3-pyridyl))hydroquinolin-2-one], the IC50 with A375 lay in the range of 2 to 10 µM; in assay [1], 10 to 20 µM; in assay [2] it was 10 to 20 µM; in assay [3], 10 to 20 µM; in assay [4], 10 to 20 µM.
As to `O=C(/C=C/c1cncc(F)c1)c1c(-c2ccc(Cl)cc2)c2cc(Cl)ccc2[nH]c1=O` [Compound 81, 3-[(2E)-3-(5-fluoro(3-pyridyl))prop-2-enoyl]-6-chloro-4-(4-chlorophenyl)hydroquinolin-2-one], the IC50 (in the assay on A375; in assay [1]; in assay [2]; in assay [3]; in assay [4]) was 2 to 10 µM each time.
As for `N#Cc1cncc(-c2c(C(=O)/C=C/c3ccccn3)c(=O)[nH]c3ccc(Cl)cc23)c1` [Compound 106, 5-[3-((2E)-3-(2-pyridyl)prop-2-enoyl)-6-chloro-2-oxo-4-hydroquinolyl]pyridine-3-carbonitrile], the IC50 was under 2 µM in the assay on A375; over 20 µM in assay [1]; 10 to 20 µM in assay [2]; over 20 µM in assay [3]; 10 to 20 µM in assay [4].
Regarding `O=C(CCc1cncc(F)c1)c1c(-c2ccccc2)c2cc(Cl)ccc2[nH]c1=O` [Compound 67, 6-Chloro-3-[3-(5-fluoro(3-pyridyl))propanoyl]-4-phenylhydroquinolin-2-one], the IC50 (in the assay with A375; in assay [1]; in assay [2]; in assay [3]; in assay [4]) was over 20 µM in each case.
Take `Cc1ccc(-c2c(C(=O)/C=C/c3ccccn3)c(=O)[nH]c3ccc(Cl)cc23)cc1` [Compound 86, 3-((2E)-3-(2-pyridyl)prop-2-enoyl)-6-chloro-4-(4-methylphenyl)hydroquinolin-2-one]: the IC50 (with A375; in assay [1]; in assay [2]; in assay [3]; in assay [4]) was 2 to 10 µM throughout.
As to `O=C(/C=C/c1nc2ccccc2[nH]1)c1c(-c2cccs2)c2cc(Cl)ccc2[nH]c1=O` [Compound 9, 3-(3-1H-Benzoimidazol-2-yl-acryloyl)-6-chloro-4-thiophen-2-yl-1H-quinolin-2-one], the IC50 with A375 was 2 to 10 µM; in assay [1], 2 to 10 µM; in assay [2], 2 to 10 µM; in assay [3] it was 10 to 20 µM; in assay [4], 10 to 20 µM.
`O=C(/C=C/c1cccs1)c1c(-c2ccccc2)c2cc(Cl)ccc2[nH]c1=O` [Compound 51, 6-Chloro-4-phenyl-3-(3-thiophen-2-yl-acryloyl)-1H-quinolin-2-one]: the IC50 in the assay with A375 was 2 to 10 µM; in assay [1], over 20 µM; in assay [2], over 20 µM; in assay [3], 10 to 20 µM; in assay [4], over 20 µM.
Turning to `CN(C)c1ccc(-c2c(C(=O)/C=C/c3ccccn3)c(=O)[nH]c3ccc(Cl)cc23)cc1` [Compound 108, 3-((2E)-3-(2-pyridyl)prop-2-enoyl)-4-[4-(dimethylamino)phenyl]-6-chlorohydroquinolin-2-one], the IC50 lay within 2 to 10 µM in the assay on A375; 2 to 10 µM in assay [1]; 2 to 10 µM in assay [2]; 10 to 20 µM in assay [3]; 2 to 10 µM in assay [4].
Turning to `COc1ccc2[nH]c(=O)c(C(=O)/C=C/c3nc4ccccc4[nH]3)c(-c3ccccc3)c2c1` [Compound 21, 3-(3-1H-Benzoimidazol-2-yl-acryloyl)-6-methoxy-4-phenyl-1H-quinolin-2-one], the IC50 is 2 to 10 µM in the assay with A375; 10 to 20 µM in assay [1]; 10 to 20 µM in assay [2]; over 20 µM in assay [3]; 10 to 20 µM in assay [4].
`COc1ccc(-c2c(C(=O)/C=C/c3cncc(F)c3)c(=O)[nH]c3ccc(Cl)cc23)cc1` [Compound 79, 3-[(2E)-3-(5-fluoro(3-pyridyl))prop-2-enoyl]-6-chloro-4-(4-methoxyphenyl)hydroquinolin-2-one]: the IC50 is under 2 µM in the assay with A375; 2 to 10 µM in assay [1]; 2 to 10 µM in assay [2]; 2 to 10 µM in assay [3]; 2 to 10 µM in assay [4].
For `O=C(/C=C/c1cncc(F)c1)c1c(-c2ccc(Br)cc2)c2cc(Cl)ccc2[nH]c1=O` [Compound 91, 3-[(2E)-3-(5-fluoro(3-pyridyl))prop-2-enoyl]-4-(4-bromophenyl)-6-chlorohydroquinolin-2-one], the IC50 (in the assay on A375; in assay [1]; in assay [2]; in assay [3]; in assay [4]) was 2 to 10 µM each time.
For `N#Cc1cncc(-c2c(C(=O)/C=C/c3cncc(F)c3)c(=O)[nH]c3ccc(Cl)cc23)c1` [Compound 105, 5-{3-[(2E)-3-(5-fluoro(3-pyridyl))prop-2-enoyl]-6-chloro-2-oxo-4-hydroquinolyl}pyridine-3-carbonitrile], the IC50 is 2 to 10 µM in the assay on A375; 10 to 20 µM in assay [1]; 10 to 20 µM in assay [2]; 10 to 20 µM in assay [3]; 10 to 20 µM in assay [4].
`Cc1cncc(-c2c(C(=O)/C=C/c3ccccn3)c(=O)[nH]c3ccc(Cl)cc23)c1` [Compound 96, 3-((2E)-3-(2-pyridyl)prop-2-enoyl)-6-chloro-4-(5-methyl(3-pyridyl))hydroquinolin-2-one]: the IC50 in the assay with A375 is 2 to 10 µM; in assay [1], 10 to 20 µM; in assay [2], 2 to 10 µM; in assay [3], over 20 µM; in assay [4], 10 to 20 µM.
Take `O=C(/C=C/c1nc2ccccc2[nH]1)c1c(-c2ccccc2)c2cccnc2[nH]c1=O` [Compound 25, 3-(3-1H-Benzoimidazol-2-yl-acryloyl)-4-phenyl-1H-[1,8]naphthyridin-2-one]: the IC50 is 10 to 20 µM with A375; 10 to 20 µM in assay [1]; 10 to 20 µM in assay [2]; 10 to 20 µM in assay [3]; over 20 µM in assay [4].
Take `O=C(/C=C/c1ccccn1)c1c(-c2cncc(Cl)c2)c2cc(Cl)ccc2[nH]c1=O` [Compound 102, 3-((2E)-3-(2-pyridyl)prop-2-enoyl)-6-chloro-4-(5-chloro(3-pyridyl))hydroquinolin-2-one]: the IC50 in the assay on A375 was in the range of 2 to 10 µM; in assay [1], 10 to 20 µM; in assay [2], 10 to 20 µM; in assay [3], 10 to 20 µM; in assay [4], 10 to 20 µM.
`O=C(/C=C/c1cc(Br)cs1)c1c(-c2ccccc2)c2cc(Cl)ccc2[nH]c1=O` [Compound 46, 3-[3-(4-Bromo-thiophen-2-yl)-acryloyl]-6-chloro-4-phenyl-1H-quinolin-2-one]: the IC50 (in the assay with A375; in assay [1]; in assay [2]; in assay [3]; in assay [4]) was 2 to 10 µM each time.
For the compound `COc1ccc2[nH]c(/C=C/C(=O)c3c(-c4ccccc4)c4cc(Cl)ccc4[nH]c3=O)nc2c1` [Compound 65, 6-Chloro-3-[3-(5-methoxy-1H-benzoimidazol-2-yl)-acryloyl]-4-phenyl-1H-quinolin-2-one], the IC50 in the assay on A375 is under 2 µM; in assay [1], 2 to 10 µM; in assay [2] it was 2 to 10 µM; in assay [3], 2 to 10 µM; in assay [4], 2 to 10 µM.
`Cn1c(/C=C/C(=O)c2c(-c3ccccc3)c3cc(Cl)ccc3[nH]c2=O)nc2ccccc21` [Compound 53, 6-Chloro-3-[3-(1-methyl-1H-benzoimidazol-2-yl)-acryloyl]-4-phenyl-1H-quinolin-2-one]: the IC50 (with A375; in assay [1]; in assay [2]; in assay [3]; in assay [4]) was 2 to 10 µM throughout.

For orientation: IC50 means the concentration needed to halve the response being measured. High values mean weaker potency in that assay, low ones greater potency in that assay.
